Here are results for 5 compounds from patent publication US8198099B2, “Mechanism to signal receptor-ligand interactions with luminescent quantum dots” (The University of Miami, priority 2006, dated 2012).

Experiment [1] in a line: Luminescence restoration on adding excess macrocyclic receptor 3 to quantum dots and quencher 1. Type of experiment: binding. To be noted: quantum dots 1.5 μM, 1 4.1 μM, 3 21 μM, pH=7.8, 20° C. The method, then:
(§1) The emission spectra (λEx=350 nm) of the same solution were recorded before (b) and after the consecutive addition of 1 (c, 4.1 μM) and 3 (d, 21 μM). Also shown is a Stern-Volmer plot (e) of hydrophilic CdSe—ZnS core-shell quantum dots (1.5 μM, sodium phosphate buffer, pH=7.8, 20° C., λEx=350 nm) upon addition of increasing amounts of 1.
The change imposed on the luminescence of the hydrophilic quantum dots by the quencher 1 can be reversed with the addition of an excess of cucurbituril (3 in FIG. 3). Indeed, this particular macrocyclic receptor is known to bind bipyridinium dications with high association constants in aqueous solutions.^36-39 Consistently, the emission spectrum (d in FIG. 2) recorded in the presence of an excess of 3 relative to 1 closely resembles the one recorded before the addition of 1 (b). The infrared spectra recorded before (b in FIG. 4) and after (c in FIG. 4) treatment of the CdSe—ZnS core-shell quantum dots with mercaptoacetic acid and potassium hydroxide show the disappearance of the [C—H] stretching vibrations at 2800 cm^−1 to […] (a) for hydrophobic ligands and the appearance of the [C═O] stretching vibrations at 1300 cm^−1 to 1700 cm^−1 (d) for the hydrophilic ones. […] In principle, the very same mechanism can be adapted to signal receptor-ligand interactions with changes in luminescence. […]

Experiment [2] is described as follows: Stern-Volmer quenching of quantum dot luminescence by bipyridinium quenchers. Type of experiment: binding. To be noted: for Stern-Volmer constant: linear (static) region of plot, quantum dots 1.5 μM, sodium phosphate buffer, pH=7.8, 20° C., λEx=350 nm. On the procedure:
as §1
(§2) Also shown is a Stern-Volmer plot (d) of hydrophilic CdSe—ZnS core-shell quantum dots (1.5 μM, sodium phosphate buffer, pH=7.8, 20° C., λEx=350 nm) after addition of increasing amounts of 2.
Indeed, bipyridinium dications are known to accept electrons from excited CdSe and CdSe—ZnS core-shell quantum dots, quenching their luminescence.36-37 The corresponding Stern-Volmer plot (e in FIG. 2) deviated from linearity at quencher concentrations greater than about 2.5 μM. […] These observations are consistent with the adsorbance of the dicationic quencher on the surface of the hydrophilic quantum dots as a result of electrostatic interactions with their anionic carboxylate groups.
In order to test the potential of our operating principles to signal receptor-ligand interactions, we designed a compound (2 in FIG. 3) integrating a bipyridinium quencher and a biotin ligand within the same molecular skeleton and prepared this molecule in two synthetic steps (see FIG. 6). Once again, the luminescence of the hydrophilic quantum dots decreases upon exposure to 2 (a and b in FIG. 7) (the addition of either 1 or 2 to a solution of the quantum dots has no influence on the visible region of the absorption spectrum). […]
Methods. […] Infrared absorption spectra were recorded with a Perkin-Elmer Spectrum One Fourier transform spectrometer. Visible absorption spectra were recorded with a Varian Cary 100 Bio spectrometer, using quartz cells with a path length of 0.5 cm. Emission spectra were recorded with a Varian Cary Eclipse spectrometer in aerated solutions. Fast atom bombardment mass spectra (FABMS) were recorded with a VG Mass Lab Trio-2 in a 3-nitrobenzyl alcohol matrix. […]

A further experiment has as its target T1, streptavidin (Streptomyces avidinii, UniProt P22629).
T1 construct: purchased
Description: Luminescence enhancement on adding streptavidin to quantum dots and quencher-biotin 2. The experiment is classed as binding. To be noted: quantum dots 1.5 μM, 2 4.1 μM, streptavidin 21 μM (large excess), pH=7.8, 20° C. The method, then:
as §2
(§3) The addition of increasing amounts of streptavidin to a mixture of the hydrophilic quantum dots and 2 leads to a luminescence enhancement (c in FIG. 7). The addition of 3, streptavidin or bovine serum albumin to a solution of the hydrophilic quantum dots has no influence on the emission spectrum in the absence of bipyridinium quenchers. Instead, the addition of bovine serum albumin has no influence of the emission spectrum under otherwise identical conditions (FIG. 8). […] The luminescence increases only by 30% after the association of 2 and streptavidin, while it grows by 80% after the interaction of 1 and 3. […] Presumably, an adjustment in the length of the aliphatic spacer connecting the quencher to the ligand in 2 can be invoked to improve the luminescence enhancement upon streptavidin binding.
Methods. […] Infrared absorption spectra were recorded with a Perkin-Elmer Spectrum One Fourier transform spectrometer. Visible absorption spectra were recorded with a Varian Cary 100 Bio spectrometer, using quartz cells with a path length of 0.5 cm. Emission spectra were recorded with a Varian Cary Eclipse spectrometer in aerated solutions. […]

The target of another experiment is T2, bovine serum albumin (Bos taurus, UniProt P02769).
T2 construct: purchased
Description: Specificity control: bovine serum albumin added to quantum dots and 2. The experiment is classed as binding. The note with it: quantum dots 1.5 μM, 2 4.1 μM, bovine serum albumin 7.4 μM, pH=7.8, 20° C.
Text: as §3
Methods. […] Infrared absorption spectra were recorded with a Perkin-Elmer Spectrum One Fourier transform spectrometer. Visible absorption spectra were recorded with a Varian Cary 100 Bio spectrometer, using quartz cells with a path length of 0.5 cm. Emission spectra were recorded with a Varian Cary Eclipse spectrometer in aerated solutions. Fast atom bombardment mass spectra (FABMS) were recorded with a VG Mass Lab Trio-2 in a 3-nitrobenzyl alcohol matrix. Nuclear magnetic resonance (NMR) spectra were recorded with Bruker Avance 400 and 500 spectrometers.

The nature of experiment [3]: Control: receptor added to quantum dots without bipyridinium quenchers. The note with it: in the absence of bipyridinium quenchers.

T2 sequence (P02769 25-607): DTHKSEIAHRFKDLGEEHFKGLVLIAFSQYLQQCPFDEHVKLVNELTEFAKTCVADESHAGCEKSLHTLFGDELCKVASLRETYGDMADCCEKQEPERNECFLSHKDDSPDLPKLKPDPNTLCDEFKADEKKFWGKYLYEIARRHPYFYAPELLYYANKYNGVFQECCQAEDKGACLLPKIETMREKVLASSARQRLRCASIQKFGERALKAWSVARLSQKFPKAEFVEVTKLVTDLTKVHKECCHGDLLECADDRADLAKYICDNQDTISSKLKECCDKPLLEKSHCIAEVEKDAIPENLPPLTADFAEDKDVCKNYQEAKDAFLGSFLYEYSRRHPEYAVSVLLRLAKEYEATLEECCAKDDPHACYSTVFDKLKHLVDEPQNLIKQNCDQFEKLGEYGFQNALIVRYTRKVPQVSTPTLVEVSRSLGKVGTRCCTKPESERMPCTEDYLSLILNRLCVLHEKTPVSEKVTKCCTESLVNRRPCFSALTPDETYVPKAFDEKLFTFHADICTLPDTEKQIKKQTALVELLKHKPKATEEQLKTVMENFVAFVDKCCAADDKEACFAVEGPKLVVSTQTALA
T1 sequence (P22629 25-183, species assumed): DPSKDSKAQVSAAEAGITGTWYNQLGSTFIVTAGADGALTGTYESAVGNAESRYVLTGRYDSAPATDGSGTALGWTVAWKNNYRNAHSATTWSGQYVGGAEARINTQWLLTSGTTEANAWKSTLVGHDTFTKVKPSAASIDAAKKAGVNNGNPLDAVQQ

`C[n+]1ccc(-c2cc[n+](C)cc2)cc1` [compound 1, methyl viologen, reference compound]: in experiment [1], the “luminescence increase after interaction with 3” value was 80%. Besides, in experiment [2], the Stern-Volmer constant entry is recorded as “about 0.45 μM^−1”. On to `C[n+]1ccc(-c2cc[n+](CCCOCCCCCC3SCC4NC(=O)NC43)cc2)cc1.[I-].[I-]` (stereo not drawn) [compound 2, 1-Methyl-1′-(3-(5-(2-Oxohexahydrothieno[3,4-d]imidazol-6-yl)-pentanoxy)-propyl)-4,4′-Bipyridinium Bisiodide], for which the Stern-Volmer constant result in experiment [2] is reported as “about 0.22 μM^−1”. The “decrease in the Stern-Volmer constant relative to 1” value in experiment [2] (same conditions as the Stern-Volmer plots) is given as “about 0.23 μM^−1”. Further, the “luminescence increase after association with streptavidin” value at streptavidin stood at 30%. The “effect of bovine serum albumin on the emission spectrum” value at bovine serum albumin is “no influence”. For `O=C1N2CN3C(=O)N4CN5C(=O)N6CN7C(=O)N8CN9C(=O)N%10CN%11C(=O)N%12CN1C1C2N2CN%13C(=O)N(CN%14C(=O)N(CN%15C(=O)N(CN%16C(=O)N(CN%17C(=O)N(CN1C2=O)C%12C%11%17)C%10C9%16)C8C7%15)C6C5%14)C4C3%13` (stereo not drawn) [compound 3, cucurbituril, reference compound], in experiment [3], the “effect on the emission spectrum of the quantum dots” value (shortened to “effect on the emission spectrum”) was “no influence”.

In the case of “bovine serum albumin: control protein that does not bind biotin”, the “effect on the emission spectrum” value in experiment [3] is listed as “no influence”. As for “streptavidin: protein receptor that binds the biotin ligand of 2”, the “effect on the emission spectrum” value in experiment [3] is given as “no influence”.
